Data reported in patent US10745382B2 (BRISTOL-MYERS SQUIBB COMPANY, priority 2015, dated 2020).
Where two headings read alike, the source gives them in different places.

Target: T1, PD-1/PD-L1 (Homo sapiens, UniProt Q9NZQ7)
T1 construct: made in house; host or cells: HEK293T
Assay: PD-1/PD-L1 Homogenous Time-Resolved Fluorescence (HTRF) binding assay
Settings: PD-L1-His 10 nM, PD-1-Ig 20 nM, read-out: Range or IC50
How it was run: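 Additional pairs run were PD-1-Ig with PD-L2-His (20 & 5 nM) and CD80-His with PD-L1-Ig (100 & 10 nM), all human proteins. Buffer: dPBS plus 0.1% BSA, 0.05% Tween-20; time-resolved FRET read-out via 1 nM Eu-cryptate anti-Ig and 20 nM APC anti-His, final concentrations.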

T1 sequence (Q9NZQ7 with tags, fused parts or gaps): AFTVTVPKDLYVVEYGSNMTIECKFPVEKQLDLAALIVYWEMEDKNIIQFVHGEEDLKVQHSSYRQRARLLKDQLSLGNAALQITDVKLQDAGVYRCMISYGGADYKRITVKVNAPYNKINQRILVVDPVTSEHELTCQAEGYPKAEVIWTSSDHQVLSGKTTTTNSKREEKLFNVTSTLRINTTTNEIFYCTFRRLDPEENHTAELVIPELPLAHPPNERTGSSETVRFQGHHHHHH

**Q.** Which IC50 (value given as range class) does the source give for `Cc1c(COc2cc(OCc3cncc(C(N)=O)c3)c(CN3CCCC[C@H]3C(=O)O)cc2Cl)cccc1-c1cccc(OCCCN2CCC(CO)(C(=O)O)CC2)c1C` [Example 1111, (S)-1-(2-((5-carbamoylpyridin-3-yl)methoxy)-4-((3′-(3-(4-carboxy-4-(hydroxymethyl)piperidin-1-yl)propoxy)-2,2′-dimethyl-[1,1′-biphenyl]-3-yl)methoxy)-5-chlorobenzyl)piperidine-2-carboxylic Acid] here?
**A.** 0.21 to 10 nM

**Q.** Which IC50 (value given as range class) does the source give for `Cc1c(COc2cc(OCc3cncc(C#N)c3)c(CN[C@](C)(CO)C(=O)O)cc2Cl)cccc1-c1cccc(OCCCN2CCC(CO)(C(=O)O)CC2)c1C` [Example 1112, (R)-1-(3-((3′-((4-(((2-carboxy-1-hydroxypropan-2-yl)amino)methyl)-2-chloro-5-((5-cyanopyridin-3-yl)methoxy)phenoxy)methyl)-2,2′-dimethyl-[1,1′-biphenyl]-3-yl)oxy)propyl)-4-(hydroxymethyl)piperidine-4-carboxylic Acid] here?
**A.** 0.21 to 10 nM

**Q.** `Cc1c(COc2cc(OCc3cncc(C(N)=O)c3)c(CN[C@](C)(CO)C(=O)O)cc2Cl)cccc1-c1cccc(OCCCN2CCC(CO)(C(=O)O)CC2)c1C` [Example 1113, (R)-1-(3-((3′-((5-((5-carbamoylpyridin-3-yl)methoxy)-4-(((2-carboxy-1-hydroxypropan-2-yl)amino)methyl)-2-chlorophenoxy)methyl)-2,2′-dimethyl-[1,1′-biphenyl]-3-yl)oxy)propyl)-4-(hydroxymethyl)piperidine-4-carboxylic Acid] was tested. Which IC50 (value given as range class) did it give?
**A.** 0.21 to 10 nM

**Q.** `Cc1c(COc2cc(OCc3cncc(C(N)=O)c3)c(CN3CCCC[C@H]3C(=O)O)cc2Cl)cccc1-c1cccc(OCCCN2CCC(CO)(C(=O)O)CC2)c1Cl` [Example 1114, (S)-1-(2-((5-carbamoylpyridin-3-yl)methoxy)-4-((3′-(3-(4-carboxy-4-(hydroxymethyl)piperidin-1-yl)propoxy)-2′-chloro-2-methyl-[1,1′-biphenyl]-3-yl)methoxy)-5-chlorobenzyl)piperidine-2-carboxylic Acid] was tested. Which IC50 (value given as range class) did it give?
**A.** 0.21 to 10 nM

**Q.** `Cc1c(COc2cc(OCc3cncc(C#N)c3)c(CN[C@](C)(CO)C(=O)O)cc2Cl)cccc1-c1cccc(OCCCN2CCC(CO)(C(=O)O)CC2)c1Cl` [Example 1115, (R)-1-(3-((3′-((4-(((2-carboxy-1-hydroxypropan-2-yl)amino)methyl)-2-chloro-5-((5-cyanopyridin-3-yl)methoxy)phenoxy)methyl)-2-chloro-2′-methyl-[1,1′-biphenyl]-3-yl)oxy)propyl)-4-(hydroxymethyl)piperidine-4-carboxylic Acid] was tested. Which IC50 (value given as range class) did it give?
**A.** 0.21 to 10 nM

**Q.** How did the IC50 (value given as range class) turn out when `Cc1c(COc2cc(OCc3cncc(C(N)=O)c3)c(CN[C@](C)(CO)C(=O)O)cc2Cl)cccc1-c1cccc(OCCCN2CCC(CO)(C(=O)O)CC2)c1Cl` [Example 1116, (R)-1-(3-((3′-((5-((5-carbamoylpyridin-3-yl)methoxy)-4-(((2-carboxy-1-hydroxypropan-2-yl)amino)methyl)-2-chlorophenoxy)methyl)-2-chloro-2′-methyl-[1,1′-biphenyl]-3-yl)oxy)propyl)-4-(hydroxymethyl)piperidine-4-carboxylic Acid] was run?
**A.** 0.21 to 10 nM

**Q.** `CCOC(=O)C1(CO)CCN(CCCOc2cccc(-c3cccc(COc4cc(OCc5cncc(C#N)c5)c(CNC(C)(CO)CO)cc4Cl)c3C)c2Cl)C1` (centres unmarked) [Example 1117, ethyl 1-(3-((2-chloro-3′-((2-chloro-5-((5-cyanopyridin-3-yl)methoxy)-4-(((1,3-dihydroxy-2-methylpropan-2-yl)amino)methyl)phenoxy)methyl)-2′-methyl-[1,1′-biphenyl]-3-yl)oxy)propyl)-3-(hydroxymethyl)pyrrolidine-3-carboxylate] was tested. Which IC50 (value given as range class) did it give?
**A.** 0.21 to 10 nM

**Q.** `Cc1c(COc2cc(OCc3cncc(C#N)c3)c(CNC(C)(CO)CO)cc2Cl)cccc1-c1cccc(OCCCN2CCC(CO)(C(=O)O)C2)c1Cl` (centres unmarked) [Example 1118, 1-(3-((2-chloro-3′-((2-chloro-5-((5-cyanopyridin-3-yl)methoxy)-4-(((1,3-dihydroxy-2-methylpropan-2-yl)amino)methyl)phenoxy)methyl)-2′-methyl-[1,1′-biphenyl]-3-yl)oxy)propyl)-3-(hydroxymethyl)pyrrolidine-3-carboxylic Acid] was tested. Which IC50 (value given as range class) did it give?
**A.** 10 to 100 nM

**Q.** `Cc1c(COc2cc(OCc3cncc(C#N)c3)c(CN[C@](C)(CO)C(=O)O)cc2Cl)cccc1-c1cccc(OCCCN2CC[C@@H](O)C2)c1Cl` [Example 1121, (R)-2-((5-Chloro-4-((2′-chloro-3′-(3-((R)-3-hydroxypyrrolidin-1-yl)propoxy)-2-methyl-[1,1′-biphenyl]-3-yl)methoxy)-2-((5-cyanopyridin-3-yl)methoxy)benzyl)amino)-3-hydroxy-2-methylpropanoic Acid] was tested. Which IC50 (value given as range class) did it give?
**A.** 0.21 to 10 nM

**Q.** For `Cc1c(COc2cc(OCc3cncc(C#N)c3)c(C=O)cc2Cl)cccc1-c1cccc(OCCCN2CC[C@@H](O)C2)c1Cl` [Example 1509, (R)-5-((4-chloro-5-((2′-chloro-3′-(3-(3-hydroxypyrrolidin-1-yl)propoxy)-2-methyl-[1,1′-biphenyl]-3-yl)methoxy)-2-formylphenoxy)methyl)nicotinonitrile], which IC50 (numeric IC50) is on record?
**A.** 12 nM

**Q.** Which IC50 (value given as range class) does the source give for `Cc1c(COc2cc(OCc3cncc(C#N)c3)c(CN3CCCC[C@H]3C(=O)O)cc2Cl)cccc1-c1cccc(OCCCN2CC[C@@H](O)C2)c1Cl` [Example 1510, (S)-1-(5-chloro-4-((2′-chloro-3′-(3-((R)-3-hydroxypyrrolidin-1-yl)propoxy)-2-methyl-[1,1′-biphenyl]-3-yl)methoxy)-2-((5-cyanopyridin-3-yl)methoxy)benzyl)piperidine-2-carboxylic acid] here?
**A.** 0.21 to 10 nM

**Q.** How did the IC50 (value given as range class) turn out when `Cc1c(COc2cc(OCc3cncc(C#N)c3)c(CN[C@@](C)(CO)C(=O)O)cc2Cl)cccc1-c1cccc(OCCCN2CC[C@@H](O)C2)c1Cl` [Example 1511, (S)-2-((5-chloro-4-((2′-chloro-3′-(3-((R)-3-hydroxypyrrolidin-1-yl)propoxy)-2-methyl-[1,1′-biphenyl]-3-yl)methoxy)-2-((5-cyanopyridin-3-yl)methoxy)benzyl)amino)-3-hydroxy-2-methylpropanoic acid] was run?
**A.** 0.21 to 10 nM

**Q.** For `Cc1c(COc2cc(OCc3cncc(C#N)c3)c(CN[C@H](CO)C(=O)O)cc2Cl)cccc1-c1cccc(OCCCN2CC[C@@H](O)C2)c1Cl` [Example 1512, (R)-2-((5-chloro-4-((2′-chloro-3′-(3-((R)-3-hydroxypyrrolidin-1-yl)propoxy)-2-methyl-[1,1′-biphenyl]-3-yl)methoxy)-2-((5-cyanopyridin-3-yl)methoxy)benzyl)amino)-3-hydroxypropanoic acid], which IC50 (value given as range class) is on record?
**A.** 0.21 to 10 nM

**Q.** `Cc1c(COc2cc(OCc3cncc(S(C)(=O)=O)c3)c(CN3CCCC[C@H]3C(=O)O)cc2Cl)cccc1-c1cccc(OCCCN2CC[C@@H](O)C2)c1Cl` [Example 1513, (S)-1-(5-chloro-4-((2′-chloro-3′-(3-((R)-3-hydroxypyrrolidin-1-yl)propoxy)-2-methyl-[1,1′-biphenyl]-3-yl)methoxy)-2-((5-(methylsulfonyl)pyridin-3-yl)methoxy)benzyl)piperidine-2-carboxylic acid] was tested. Which IC50 (value given as range class) did it give?
**A.** 10 to 100 nM

**Q.** Which IC50 (value given as range class) does the source give for `Cc1c(COc2cc(OCc3cncc(C#N)c3)c(CN[C@@](C)(CO)C(=O)O)cc2Cl)cccc1-c1cccc(OCCCN2CC[C@@H](O)C2)c1C(F)F` [Example 1514, (S)-2-((5-chloro-2-((5-cyanopyridin-3-yl)methoxy)-4-((2′-(difluoromethyl)-3′-(3-((R)-3-hydroxypyrrolidin-1-yl)propoxy)-2-methyl-[1,1′-biphenyl]-3-yl)methoxy)benzyl)amino)-3-hydroxy-2-methylpropanoic acid] here?
**A.** 0.21 to 10 nM

**Q.** How did the IC50 (value given as range class) turn out when `Cc1c(COc2cc(OCc3cncc(C#N)c3)c(CO)cc2Cl)cccc1-c1cccc(OCCCN2CC[C@@H](O)C2)c1C(F)F` [Example 1515, (R)-5-((4-chloro-5-((2′-(difluoromethyl)-3′-(3-(3-hydroxypyrrolidin-1-yl)propoxy)-2-methyl-[1,1′-biphenyl]-3-yl)methoxy)-2-(hydroxymethyl)phenoxy)methyl)nicotinonitrile] was run?
**A.** 10 to 100 nM

**Q.** With `Cc1c(COc2cc(OCc3cncc(C#N)c3)c(CN[C@@](C)(CO)C(=O)O)cc2Cl)cccc1-c1cccc(OCCCN2CCC(O)(CC(=O)O)C2)c1C` (stereo partly drawn) [Example 1517, (2S)-2-((4-((3′-(3-(3-(carboxymethyl)-3-hydroxypyrrolidin-1-yl)propoxy)-2,2′-dimethyl-[1,1′-biphenyl]-3-yl)methoxy)-5-chloro-2-((5-cyanopyridin-3-yl)methoxy)benzyl)amino)-3-hydroxy-2-methylpropanoic acid] as the compound, how does the IC50 (value given as range class) read?
**A.** 0.21 to 10 nM

**Q.** `Cc1c(COc2cc(OCc3cncc(C(N)=O)c3)c(CN[C@@](C)(CO)C(=O)O)cc2Cl)cccc1-c1cccc(OCCCN2CCC(O)(CC(=O)O)C2)c1Cl` (stereo partly drawn) [Example 1518, (2S)-2-((2-((5-carbamoylpyridin-3-yl)methoxy)-4-((3′-(3-(3-(carboxymethyl)-3-hydroxypyrrolidin-1-yl)propoxy)-2′-chloro-2-methyl-[1,1′-biphenyl]-3-yl)methoxy)-5-chlorobenzyl)amino)-3-hydroxy-2-methylpropanoic acid] was tested. Which IC50 (value given as range class) did it give?
**A.** 10 to 100 nM

**Q.** Which IC50 (value given as range class) does the source give for `Cc1c(COc2cc(OCc3cncc(C#N)c3)c(CN3CCCC[C@H]3C(=O)O)cc2Cl)cccc1-c1cccc(OCCCN2CC[C@@H](O)C2)c1F` [Example 1520, (S)-1-(5-chloro-2-((5-cyanopyridin-3-yl)methoxy)-4-((2′-fluoro-3′-(3-((R)-3-hydroxypyrrolidin-1-yl)propoxy)-2-methyl-[1,1′-biphenyl]-3-yl)methoxy)benzyl)piperidine-2-carboxylic acid] here?
**A.** 0.21 to 10 nM

**Q.** How did the IC50 (value given as range class) turn out when `Cc1c(COc2cc(OCc3cncc(C#N)c3)c(CN[C@@](C)(CO)C(=O)O)cc2Cl)cccc1-c1cccc(O[C@@H](C)CCN2CC[C@@H](O)C2)c1Cl` [Example 1521, (S)-2-((5-chloro-4-((2′-chloro-3′-(((S)-4-((R)-3-hydroxypyrrolidin-1-yl)butan-2-yl)oxy)-2-methyl-[1,1′-biphenyl]-3-yl)methoxy)-2-((5-cyanopyridin-3-yl)methoxy)benzyl)amino)-3-hydroxy-2-methylpropanoic acid] was run?
**A.** 0.21 to 10 nM
